From ChEMBL document CHEMBL5244235, “Diarylpentanoids with antitumor activity: A critical review of structure-activity relationship studies” (Eur J Med Chem, 2020)

What was measured:
GCIY = assay: Antiproliferative activity against human GCIY cells assessed as cell growth inhibition measured after 72 hrs; type: functional, cell-based
[1] = Antiproliferative activity against human SH-10-TC cells assessed as cell growth inhibition measured after 72 hrs; type: functional, cell-based
HCT-116 = assay: Antiproliferative activity against human HCT-116 cells assessed as cell growth inhibition measured after 72 hrs; type: functional, cell-based; settings: HCT-116, 72 h
DLD-1 = assay: Antiproliferative activity against human DLD-1 cells assessed as cell growth inhibition measured after 72 hrs; type: functional, cell-based; settings: DLD-1, 72 h
A549 = assay: Antiproliferative activity against human A549 cells assessed as cell growth inhibition measured after 72 hrs; type: functional, cell-based; settings: A549, 72 h
ACHN = assay: Antiproliferative activity against human ACHN cells assessed as cell growth inhibition measured after 72 hrs; type: functional, cell-based
Huh-7 = assay: Antiproliferative activity against human Huh-7 cells assessed as cell growth inhibition measured after 72 hrs; type: functional, cell-based; settings: Huh-7, 72 h
[2] = Antiproliferative activity against human OVK18 cells assessed as cell growth inhibition measured after 72 hrs; type: functional, cell-based; settings: OVK18, 72 h
MCF7 = assay: Antiproliferative activity against human MCF7 cells assessed as cell growth inhibition measured after 72 hrs; type: functional, cell-based; settings: MCF7, 72 h
A-431 = assay: Antiproliferative activity against human A-431 cells assessed as cell growth inhibition measured after 72 hrs; type: functional, cell-based; settings: A-431, 72 h
HuCCT-1 = assay: Antiproliferative activity against human HuCCT-1 cells assessed as cell growth inhibition measured after 72 hrs; type: functional, cell-based; settings: HuCCT-1, 72 h
8505C = assay: Antiproliferative activity against human 8505C cells assessed as cell growth inhibition measured after 72 hrs; type: functional, cell-based
G-361 = assay: Antiproliferative activity against human G-361 cells assessed as cell growth inhibition measured after 72 hrs; type: functional, cell-based; settings: G-361, 72 h
PC-3 = assay: Antiproliferative activity against human PC-3 cells assessed as cell growth inhibition measured after 72 hrs; type: functional, cell-based; settings: PC-3, 72 h
[3] = Antiproliferative activity against human PK-1 cells assessed as cell growth inhibition measured after 72 hrs; type: functional, cell-based; settings: PK-1, 72 h
P388 = assay: Antiproliferative activity against mouse P388 cells assessed as cell growth inhibition; type: functional, cell-based
L1210 = assay: Antiproliferative activity against mouse L1210 cells assessed as cell growth inhibition; type: functional, cell-based
[4] = Antiproliferative activity against human Molt 4/C8 cells assessed as cell growth inhibition; type: functional, cell-based; settings: Molt4/C8
CCRF-CEM = assay: Antiproliferative activity against human CEM cells assessed as cell growth inhibition; type: functional, cell-based
MDA-MB-231 = assay: Growth inhibition of human MDA-MB-231 cells measured after 72 hrs by microplate reader analysis; type: functional
RPMI-7951 = assay: Growth inhibition of human RPMI-7951 cells measured after 72 hrs by microplate reader analysis; type: functional, cell-based; settings: for GI50: RPMI-7951, time 72 hrs

IC50 (P388) [µM] | IC50 (L1210) [µM] | IC50 (CCRF-CEM) [µM] | SMILES | IC50 [4] [µM] | also measured
 |  |  | COc1ccc(/C=C2\CCC/C(=C\c3ccc(OC)c(OC)c3)C2=O)cc1OC |  | IC50 (GCIY): 10 µM; IC50 [1]: 10 µM; IC50 (HCT-116): 10 µM; IC50 (DLD-1): 10 µM; IC50 (A549): 10 µM; IC50 (ACHN): 10 µM; IC50 (Huh-7): 10 µM; IC50 [2]: 10 µM; IC50 (MCF7): 10 µM; IC50 (A-431): 10 µM; IC50 (HuCCT-1): 10 µM; IC50 (8505C): 10 µM; IC50 (G-361): 10 µM; IC50 (PC-3): 10 µM; IC50 [3]: 10 µM
0.81 | 0.81 | 0.81 | O=C1/C(=C/c2ccc(Cl)cc2)CNC/C1=C\c1ccc(Cl)cc1 | 0.81 | 
0.81 | 0.81 | 0.81 | CN(C)c1ccc(/C=C2\CNC/C(=C\c3ccc(N(C)C)cc3)C2=O)cc1 | 0.81 | 
 |  |  | COc1cc(CCC(O)CCc2cc(OC)c(OC)c(OC)c2)cc(OC)c1OC |  | IC50 (GCIY): > 50 µM; IC50 [1]: > 50 µM; IC50 (HCT-116): > 50 µM; IC50 (DLD-1): > 50 µM; IC50 (A549): > 50 µM; IC50 (ACHN): > 50 µM; IC50 (Huh-7): > 50 µM; IC50 [2]: > 50 µM; IC50 (MCF7): > 50 µM; IC50 (A-431): > 50 µM; IC50 (HuCCT-1): > 50 µM; IC50 (8505C): > 50 µM; IC50 (G-361): > 50 µM; IC50 (PC-3): > 50 µM; IC50 [3]: > 50 µM
 |  |  | O=C1/C(=C/c2ccccc2F)CNC/C1=C\c1ccccc1F |  | GI50 (MDA-MB-231): 0.8 µM; IC50 (RPMI-7951; RPMI-7951, 72 h): 0.7 µM
0.221 | 5.34 | 1.61 | COc1ccc(C(=O)/C=C/c2ccc(C(=O)N3C/C(=C\c4ccccc4)C(=O)/C(=C/c4ccccc4)C3)cc2)cc1OC | 1.6 | 
0.221 | 5.34 | 1.61 | O=C1/C(=C/c2ccccc2)CN(C(=O)/C=C/c2ccc3c(c2)OCO3)C/C1=C\c1ccccc1 | 1.6 | 
0.81 | 0.81 | 0.81 | COc1ccc(/C=C2\CNC/C(=C\c3ccc(OC)cc3)C2=O)cc1 | 0.81 | 
 |  |  | O=C1/C(=C/c2ccccc2F)COC/C1=C\c1ccccc1F |  | GI50 (MDA-MB-231): 0.8 µM; GI50 (RPMI-7951): 0.8 µM
0.28 | 0.28 | 0.28 | C=CC(=O)N1C/C(=C\c2ccccc2)C(=O)/C(=C/c2ccccc2)C1 | 0.28 | 
0.221 | 5.34 | 1.61 | COc1cc(/C=C/C(=O)N2C/C(=C\c3ccccc3)C(=O)/C(=C/c3ccccc3)C2)cc(OC)c1OC | 1.6 | 
 |  |  | O=C1/C(=C/c2ccccc2O)COC/C1=C\c1ccccc1O |  | GI50 (MDA-MB-231): 0.8 µM; GI50 (RPMI-7951): 0.8 µM
0.28 | 0.28 | 0.28 | C=CC(=O)N1C/C(=C\c2ccc(N(C)C)cc2)C(=O)/C(=C/c2ccc(N(C)C)cc2)C1 | 0.28 | 
 |  |  | CC(=O)Oc1ccccc1/C=C/C(=O)/C=C/c1ccccc1OC(C)=O |  | GI50 (MDA-MB-231): 1 µM; GI50 (RPMI-7951): 2.3 µM
 | 5.34 | 1.61 | O=C1/C(=C/c2ccccc2)CN(C(=O)c2ccc(/C=C/C(=O)c3ccc([N+](=O)[O-])cc3)cc2)C/C1=C\c1ccccc1 | 1.6 | 
0.221 | 5.34 | 1.61 | COc1ccc(C(=O)/C=C/c2ccc(C(=O)N3C/C(=C\c4ccccc4)C(=O)/C(=C/c4ccccc4)C3)cc2)cc1 | 1.6 | 
0.221 |  | 1.61 | O=C1/C(=C/c2ccccc2)CN(C(=O)c2ccc(/C=C/C(=O)c3ccc(O)cc3)cc2)C/C1=C\c1ccccc1 | 1.6 | 
0.221 | 5.34 | 1.61 | O=C1/C(=C/c2ccccc2)CN(C(=O)/C=C/c2ccc(Cl)cc2)C/C1=C\c1ccccc1 | 1.6 | 
0.221 | 5.34 | 1.61 | O=C1/C(=C/c2ccccc2)CN(C(=O)c2ccc(/C=C/C(=O)c3ccc(Cl)cc3)cc2)C/C1=C\c1ccccc1 | 1.6 | 
0.221 | 5.34 | 1.61 | O=C1/C(=C/c2ccccc2)CN(C(=O)/C=C/c2ccccc2)C/C1=C\c1ccccc1 | 1.6 | 

IC50 (P388) [µM] | IC50 (L1210) [µM] | IC50 (CCRF-CEM) [µM] | SMILES | IC50 [4] [µM] | also measured
0.28 | 0.28 | 0.28 | C=CC(=O)N1C/C(=C\c2ccc(OC)cc2)C(=O)/C(=C/c2ccc(OC)cc2)C1 | 0.28 | 
 |  |  | CCOC(C)COc1c(OC)cc(/C=C/C(=O)/C=C/c2cc(OC)c(OC)c(OC)c2)cc1OC (stereo unspecified) |  | IC50 (GCIY): 1 µM; IC50 [1]: 1 µM; IC50 (HCT-116): 1 µM; IC50 (DLD-1): 1 µM; IC50 (A549): 1 µM; IC50 (ACHN): 1 µM; IC50 (Huh-7): 1 µM; IC50 [2]: 1 µM; IC50 (MCF7): 1 µM; IC50 (A-431): 1 µM; IC50 (HuCCT-1): 1 µM; IC50 (8505C): 1 µM; IC50 (G-361): 1 µM; IC50 (PC-3): 1 µM; IC50 [3]: 1 µM
0.28 | 0.28 | 0.28 | C=CC(=O)N1C/C(=C\c2ccc(Cl)c(Cl)c2)C(=O)/C(=C/c2ccc(Cl)c(Cl)c2)C1 | 0.28 | 
0.221 | 5.34 | 1.61 | O=C1/C(=C/c2ccccc2)CN(C(=O)/C=C/c2ccc(Cl)c(Cl)c2)C/C1=C\c1ccccc1 | 1.6 | 
0.221 | 5.34 | 1.61 | Cc1ccc(C(=O)/C=C/c2ccc(C(=O)N3C/C(=C\c4ccccc4)C(=O)/C(=C/c4ccccc4)C3)cc2)cc1 | 1.6 | 
0.221 | 5.34 | 1.61 | COc1ccc(/C=C/C(=O)N2C/C(=C\c3ccccc3)C(=O)/C(=C/c3ccccc3)C2)cc1 | 1.6 | 
0.81 | 0.81 | 0.81 | O=C1/C(=C/c2ccccc2)CNC/C1=C\c1ccccc1 | 0.81 | 
0.221 | 5.34 | 1.61 | Cc1ccc(/C=C/C(=O)N2C/C(=C\c3ccccc3)C(=O)/C(=C/c3ccccc3)C2)cc1 | 1.6 | 
0.221 | 5.34 | 1.61 | Cc1ccc(C(=O)/C=C/c2ccc(C(=O)N3C/C(=C\c4ccccc4)C(=O)/C(=C/c4ccccc4)C3)cc2)cc1C | 1.6 | 
 |  |  | COc1cc(/C=C/C(=O)/C=C/c2cccc(O)c2)cc(OC)c1OC |  | IC50 (GCIY): 1 µM; IC50 [1]: 1 µM; IC50 (HCT-116): 1 µM; IC50 (DLD-1): 1 µM; IC50 (A549): 1 µM; IC50 (ACHN): 1 µM; IC50 (Huh-7): 1 µM; IC50 [2]: 1 µM; IC50 (MCF7): 1 µM; IC50 (A-431): 1 µM; IC50 (HuCCT-1): 1 µM; IC50 (8505C): 1 µM; IC50 (G-361): 1 µM; IC50 (PC-3): 1 µM; IC50 [3]: 1 µM
0.221 | 5.34 | 1.61 | O=C1/C(=C/c2ccccc2)CN(C(=O)/C=C/c2ccc([N+](=O)[O-])cc2)C/C1=C\c1ccccc1 | 1.6 | 
0.221 | 5.34 | 1.61 | O=C1/C(=C/c2ccccc2)CN(C(=O)c2ccc(/C=C/C(=O)c3ccc(Cl)c(Cl)c3)cc2)C/C1=C\c1ccccc1 | 1.6 | 
 |  |  | COc1ccc(/C=C2\CC(C)C/C(=C\c3ccc(OC)c(OC)c3)C2=O)cc1OC (stereo unspecified) |  | IC50 (GCIY): > 50 µM; IC50 [1]: > 50 µM; IC50 (HCT-116): > 50 µM; IC50 (DLD-1): > 50 µM; IC50 (A549): > 50 µM; IC50 (ACHN): > 50 µM; IC50 (Huh-7): > 50 µM; IC50 [2]: > 50 µM; IC50 (MCF7): > 50 µM; IC50 (A-431): > 50 µM; IC50 (HuCCT-1): > 50 µM; IC50 (8505C): > 50 µM; IC50 (G-361): > 50 µM; IC50 (PC-3): > 50 µM; IC50 [3]: > 50 µM
0.81 | 0.81 | 0.81 | O=C1/C(=C/c2ccc(Cl)c(Cl)c2)CNC/C1=C\c1ccc(Cl)c(Cl)c1 | 0.81 | 
0.221 | 5.34 | 1.61 | O=C1/C(=C/c2ccccc2)CN(C(=O)c2ccc(/C=C/C(=O)c3ccccc3)cc2)C/C1=C\c1ccccc1 | 1.6 | 
 |  |  | COc1ccccc1/C=C/C(=O)/C=C/c1ccccc1OC |  | GI50 (MDA-MB-231): 1 µM; GI50 (RPMI-7951): 2.3 µM
0.81 | 0.81 | 0.81 | O=C1/C(=C/c2ccc(F)cc2)CNC/C1=C\c1ccc(F)cc1 | 0.81 | 
0.28 | 0.28 | 0.28 | C=CC(=O)N1C/C(=C\c2ccc(F)cc2)C(=O)/C(=C/c2ccc(F)cc2)C1 | 0.28 | 
0.28 | 0.28 | 0.28 | C=CC(=O)N1C/C(=C\c2ccc(Cl)cc2)C(=O)/C(=C/c2ccc(Cl)cc2)C1 | 0.28 | 
0.221 | 5.34 | 1.61 | COc1ccc(/C=C/C(=O)N2C/C(=C\c3ccccc3)C(=O)/C(=C/c3ccccc3)C2)cc1OC | 1.6 | 

SMILES | IC50 (P388) [µM] | IC50 (L1210) [µM] | IC50 (CCRF-CEM) [µM] | IC50 [4] [µM] | also measured
C=CC(=O)N1C/C(=C\c2ccc([N+](=O)[O-])cc2)C(=O)/C(=C/c2ccc([N+](=O)[O-])cc2)C1 | 0.28 | 0.28 | 0.28 | 0.28 | 
O=C1/C(=C/c2ccc([N+](=O)[O-])cc2)CNC/C1=C\c1ccc([N+](=O)[O-])cc1 | 0.81 | 0.81 | 0.81 | 0.81 | 
